Where two headings read alike, the source gives them in different places.
Legend:
[1] = tested on: leukemic cells; settings: concentration- and time-dependent; cited from earlier work
[2] = tested on: animals with experimental arthritis; settings: prophylactic or therapeutic treatment; cited from earlier work
[3] = tested on: NOD/SCID mice engrafted with human primary leukemic cells; settings: mouse, in vivo; cited from earlier work
[4] = tested on: STAT-1; settings: cited from earlier work
[5] = tested on: murine neuron-like cells (N2a) and primary neurons with Swedish mutant APP; settings: cited from earlier work
[6] = tested on: neutrophil; settings: in vitro; cited from earlier work
[7] = tested on: human epidermoid carcinoma (A431) cells; settings: cited from earlier work
[8] = tested on: IKK; settings: 50 to 200 μM, intestinal epithelial cell line; cited from earlier work
[9] = target: T1, IKK (Homo sapiens, UniProt O14920+O15111); settings: human epithelial cells; cited from earlier work
T1 construct: endogenous in cells; also 'human epithelial cells'
T1 sequence (O14920 whole entry): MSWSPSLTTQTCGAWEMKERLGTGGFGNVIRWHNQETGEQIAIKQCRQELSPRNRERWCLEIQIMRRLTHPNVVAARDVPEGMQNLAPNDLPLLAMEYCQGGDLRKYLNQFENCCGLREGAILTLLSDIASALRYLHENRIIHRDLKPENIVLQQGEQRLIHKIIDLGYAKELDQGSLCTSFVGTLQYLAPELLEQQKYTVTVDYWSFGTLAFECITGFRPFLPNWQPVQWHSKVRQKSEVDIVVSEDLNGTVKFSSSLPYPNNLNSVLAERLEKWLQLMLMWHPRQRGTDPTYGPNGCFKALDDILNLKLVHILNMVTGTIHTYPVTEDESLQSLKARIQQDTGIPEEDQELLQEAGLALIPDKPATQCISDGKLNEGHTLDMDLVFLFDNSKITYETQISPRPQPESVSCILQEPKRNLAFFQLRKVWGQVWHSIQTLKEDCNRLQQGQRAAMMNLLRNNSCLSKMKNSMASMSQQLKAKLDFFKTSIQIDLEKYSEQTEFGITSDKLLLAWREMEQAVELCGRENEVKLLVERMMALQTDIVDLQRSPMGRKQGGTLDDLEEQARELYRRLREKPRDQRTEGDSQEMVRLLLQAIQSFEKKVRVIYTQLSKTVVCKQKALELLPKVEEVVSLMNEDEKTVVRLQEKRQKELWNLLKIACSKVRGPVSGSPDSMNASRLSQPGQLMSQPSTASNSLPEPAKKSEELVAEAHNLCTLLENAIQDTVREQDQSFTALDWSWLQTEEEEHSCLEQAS
T1 sequence (O15111 whole entry): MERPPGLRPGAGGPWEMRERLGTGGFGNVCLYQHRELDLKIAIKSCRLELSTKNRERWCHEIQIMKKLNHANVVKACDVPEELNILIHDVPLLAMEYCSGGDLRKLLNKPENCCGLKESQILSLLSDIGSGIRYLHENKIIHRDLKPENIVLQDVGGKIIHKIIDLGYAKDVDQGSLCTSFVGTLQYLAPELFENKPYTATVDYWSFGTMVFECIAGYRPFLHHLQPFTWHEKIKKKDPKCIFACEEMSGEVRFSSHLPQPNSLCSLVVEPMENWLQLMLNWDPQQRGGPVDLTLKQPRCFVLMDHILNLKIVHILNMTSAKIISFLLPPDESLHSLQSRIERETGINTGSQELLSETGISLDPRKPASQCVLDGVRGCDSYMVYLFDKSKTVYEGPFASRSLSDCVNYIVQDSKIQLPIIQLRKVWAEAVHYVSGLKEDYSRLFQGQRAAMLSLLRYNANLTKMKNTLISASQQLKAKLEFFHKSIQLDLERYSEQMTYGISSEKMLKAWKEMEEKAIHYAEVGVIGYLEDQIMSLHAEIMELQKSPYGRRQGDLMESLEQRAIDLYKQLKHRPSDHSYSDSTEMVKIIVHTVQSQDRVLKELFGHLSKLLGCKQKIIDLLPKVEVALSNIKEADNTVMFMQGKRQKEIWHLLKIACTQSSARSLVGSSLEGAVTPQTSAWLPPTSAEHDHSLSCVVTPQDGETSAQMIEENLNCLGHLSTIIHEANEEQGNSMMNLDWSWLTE
T1 sequence (Q9Y6K9 whole entry partner): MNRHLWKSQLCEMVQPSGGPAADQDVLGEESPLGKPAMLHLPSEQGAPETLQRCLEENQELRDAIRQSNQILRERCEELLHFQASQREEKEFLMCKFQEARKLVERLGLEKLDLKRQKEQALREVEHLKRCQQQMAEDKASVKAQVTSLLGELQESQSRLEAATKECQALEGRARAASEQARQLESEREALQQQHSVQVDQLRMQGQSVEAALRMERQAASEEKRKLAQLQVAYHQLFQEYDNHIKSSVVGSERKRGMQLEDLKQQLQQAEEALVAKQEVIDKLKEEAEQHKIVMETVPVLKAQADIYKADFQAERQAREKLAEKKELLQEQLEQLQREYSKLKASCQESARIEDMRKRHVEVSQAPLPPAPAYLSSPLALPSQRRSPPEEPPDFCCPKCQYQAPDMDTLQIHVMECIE

[10] = tested on: JB6 cell; settings: cited from earlier work
[11] = tested on: MMTV-Her-2/neu NF639 cell; settings: cited from earlier work
[12] = tested on: NF-kappaB; settings: cited from earlier work
[13] = tested on: Male Wistar rats; settings: cited from earlier work
[14] = tested on: Tg APPsw transgenic mice; settings: mouse, in vivo; cited from earlier work
[15] = tested on: mouse mammary carcinoma 4T1 cells; settings: dose- and time-dependent; cited from earlier work
[16] = tested on: rat vascular smooth muscle cells; settings: cited from earlier work
[17] = tested on: esophageal carcinoma cell line CE48T/VGH; settings: cited from earlier work
[18] = tested on: MCF-7 breast cancer cells; settings: absence of estradiol; cited from earlier work
[19] = tested on: Zucker lean and fatty rats; settings: 50 mg/kg/day vs vehicle; cited from earlier work
[20] = tested on: patients with type 2 diabetes; settings: cited from earlier work
[21] = tested on: patients with primary hypercholesterolemia; settings: cited from earlier work
[22] = tested on: KK/Ay mice; settings: mouse, in vivo; cited from earlier work
[23] = tested on: human T, B and myeloma tumor cells; settings: by promoting apoptosis; cited from earlier work
[24] = 80 mg daily; cited from earlier work
[25] = tested on: sIL6R; settings: four-day dietary intervention, exchange for LA; cited from earlier work
[26] = tested on: rat models; settings: meta-analysis of 13 studies; cited from earlier work
[27] = tested on: diabetic patients with active Charcot neuroarthropathy; settings: cited from earlier work
[28] = tested on: human epidermoid head and neck KB and lung H1355 cancer cells; settings: read-out: IC(50) growth inhibition; 48 h exposure; cited from earlier work
[29] = tested on: patients with Paget's bone disease; settings: end of study, cited from earlier work
[30] = severe chronic renal failure or dialysis; cited from earlier work
[31] = tested on: patients with osteoarthritis; test: Osteoarthritis patients in applicant's clinic; format: in vivo, human
[32] = tested on: osteoblasts; settings: cited from earlier work
[33] = tested on: Interleukin-6; settings: infusion; cited from earlier work
[34] = tested on: T lymphoma cells; settings: cited from earlier work
[35] = tested on: mice; settings: cited from earlier work
[36] = tested on: human breast cancer MCF-7 cells; settings: cited from earlier work
[37] = tested on: three human pancreatic cancer cell types; settings: three cell lines; read-out: mean IC(50) proliferation; cited from earlier work
[38] = tested on: cultured human pituitary adenoma cells; parameters: mean inhibition of thymidine uptake (+/−SD inhibition of basal) / mean inhibition of thymidine uptake: unit of the concentration uncertain; settings: cited from earlier work
[39] = tested on: STAT1 and STAT3; settings: cited from earlier work
[40] = tested on: spontaneously hypertensive rats (SHR); settings: cited from earlier work
[41] = tested on: experimental diabetic rat model; settings: cited from earlier work
[42] = tested on: human prostate carcinoma PC-3 cell line; settings: cited from earlier work
[43] = tested on: orthotopic prostate carcinoma model of PC-3 cells in nude mice; settings: cited from earlier work
[44] = 54 mg/day; cited from earlier work
[45] = target: T2, epidermal growth factor receptor tyrosine kinase (Rattus norvegicus, UniProt G3V6K6); settings: SHR vs normotensive Wistar rat cells; cited from earlier work
T2 construct: measured thymidine incorporation in epidermal growth factor-stimulated vascular smooth muscle cells; endogenous in cells; host or cells: aortic vascular smooth muscle cells of SHR and normotensive rats
T2 sequence (G3V6K6 25-1209): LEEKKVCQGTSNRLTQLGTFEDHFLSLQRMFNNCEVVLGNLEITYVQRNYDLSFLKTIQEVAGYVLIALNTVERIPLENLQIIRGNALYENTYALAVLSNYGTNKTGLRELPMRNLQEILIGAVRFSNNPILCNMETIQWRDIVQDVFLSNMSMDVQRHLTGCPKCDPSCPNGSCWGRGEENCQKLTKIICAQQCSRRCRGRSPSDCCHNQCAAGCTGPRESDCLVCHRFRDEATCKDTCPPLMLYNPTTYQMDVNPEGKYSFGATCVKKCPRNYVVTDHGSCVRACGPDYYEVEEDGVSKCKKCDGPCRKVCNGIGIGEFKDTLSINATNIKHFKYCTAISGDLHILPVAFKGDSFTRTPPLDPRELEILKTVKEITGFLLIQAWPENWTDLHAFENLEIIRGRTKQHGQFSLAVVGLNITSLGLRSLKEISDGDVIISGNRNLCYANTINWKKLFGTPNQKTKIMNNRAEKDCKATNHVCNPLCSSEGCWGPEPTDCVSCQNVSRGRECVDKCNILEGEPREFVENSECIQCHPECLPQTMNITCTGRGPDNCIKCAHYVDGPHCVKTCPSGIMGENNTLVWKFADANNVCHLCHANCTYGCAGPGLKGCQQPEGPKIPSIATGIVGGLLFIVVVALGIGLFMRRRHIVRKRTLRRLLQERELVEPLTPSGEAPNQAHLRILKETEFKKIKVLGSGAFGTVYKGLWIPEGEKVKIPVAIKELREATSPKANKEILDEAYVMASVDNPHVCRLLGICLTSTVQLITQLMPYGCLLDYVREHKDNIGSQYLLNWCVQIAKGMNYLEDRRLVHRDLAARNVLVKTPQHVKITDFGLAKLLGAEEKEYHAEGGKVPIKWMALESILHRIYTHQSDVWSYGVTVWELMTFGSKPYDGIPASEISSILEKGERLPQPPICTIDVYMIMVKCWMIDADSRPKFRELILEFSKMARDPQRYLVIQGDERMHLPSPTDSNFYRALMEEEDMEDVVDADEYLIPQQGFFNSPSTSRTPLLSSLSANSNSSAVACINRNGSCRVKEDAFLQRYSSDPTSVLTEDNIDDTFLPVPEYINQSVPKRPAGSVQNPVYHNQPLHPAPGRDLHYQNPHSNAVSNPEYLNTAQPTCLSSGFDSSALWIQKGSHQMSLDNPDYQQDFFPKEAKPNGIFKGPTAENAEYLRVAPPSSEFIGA

[46] = tested on: cultured human astrocytes; settings: cited from earlier work
[47] = tested on: IL-1 beta, IL-6, and TNF-alpha; settings: cited from earlier work
[48] = tested on: New Zealand White rabbits; settings: cited from earlier work
[49] = tested on: renal cell carcinoma cell line, GRC-1; settings: 20 micromol/L, 72 hours; cited from earlier work

For `O=P(O)(O)C(O)(Cc1cnc2ccccn12)P(=O)(O)O` [YM529], the “growth of leukemic cells incl. P-gp over-expressing cell line” value [1] is listed as “inhibited the growth”, the “severity of experimental arthritis” value [2] is listed as “suppressed the severity of disease” and the survival [3] is listed as “prolonged the survival”.

For Epigallocatechin-3-gallate [EGCG], the “INF-γ-induced STAT1 activation” value ([4]; T84 epithelial and THP-1 monocytes/macrophages) is listed as “significantly reduced”, the “interferon-γ-induced STAT-1 activation” value ([4]; carcinoma-derived cell lines of non-gut origin) is listed as “blocked” and the “reduction of Abeta generation” value [5] is listed as no more than 54%. For the same compound, the “chemokine induced neutrophil chemotaxis” value [6] was “dramatically inhibit”, the “NF-kappaB levels in cytoplasm and nucleus” value ([7]; 10-80 microM, A431 cells and NHEK) was “lowering of NF-kappaB levels” and the “cell growth of A431 cells” value ([7]; dose-dependent, not in NHEK) was “inhibition of cell growth”. The IKK activity [8] was “inhibited”, the “TNF-α-mediated IKK activation” value [9] was “inhibits” and the “EGF- or TPA-induced JB6 cell transformation” value [10] was “inhibit”. The “activator protein-1 (AP-1) activation” value [10] was “inhibited”, the “cell growth in culture and soft agar” value [11] was “inhibited” and the “NF-kappaB nuclear translocation and IL-6 secretion induced by UVB and UVA” value [12] was “dramatically inhibited”. For the same compound, the “phosphorylation of c-Jun” value ([13]; 10 mg/kg iv then 10 mg/kg/h, all time points) was “markedly attenuated”, the “Plasma IL-6 and creatine phosphokinase levels” value ([13]; 10 mg/kg iv then 10 mg/kg/h) was “decreased” and the “myocardial damage and myeloperoxidase activity” value ([13]; 10 mg/kg iv then 10 mg/kg/h) was “reduced”. The “reperfusion-induced activation of IKK, degradation of IκB-α, activation of NF-κB” value ([13]; rat, in vivo) was “reduced”, the “beta-amyloid (Abeta) levels and plaques” value [14] was “decreased” and the “cell proliferation and apoptosis” value [15] was “inhibition of cell proliferation”.

In the case of `COc1cccc(-c2cc(=O)c3ccccc3o2)c1N` [PD98059], the “expression of IL-6 mRNA induced by Ang II” value [16] is given as “completely abolished” and the “protection of IL-6 against apoptosis” value [17] is given as “completely blocked”.

In the case of `CC(C)c1c(C(=O)Nc2ccccc2)c(-c2ccccc2)c(-c2ccc(F)cc2)n1CC[C@@H](O)C[C@@H](O)CC(=O)O` [atorvastatin], the “proliferation of MCF-7 cells” value [18] is listed as “inhibit the proliferation”, the “increase in glucose infusion rate and glucose disposal (Rd)” value [19] is listed as “approximately two-fold” and the “relative risk reduction in the primary endpoint” value ([20]; 10 mg daily for four years) is listed as 37%. The “rate reduction of major cardiovascular events” value ([20]; 10 mg daily vs placebo) was 37%, the “patients with at least one major cardiovascular event” value ([20]; 10 mg daily, n=1428, median follow-up 3.9 years) was 83 and the “acute coronary heart disease events reduced” value ([20]; 10 mg daily) was 36%. The adverse events ([20]; 10 mg daily) was “No excess of adverse events”, the coronary re-vascularisations reduced ([20]; 10 mg daily) was 31% and the death rate reduced ([20]; 10 mg daily) was 27%. The “major cardiovascular event rate” value ([20]; 10 mg daily) was 1.54 per 100 person-years at risk, the “rate of stroke reduced” value ([20]; 10 mg daily) was 48% and the FMD ([21]; 2 weeks) was “higher than baseline”. The IL-6 levels ([21]; 3 and 9 months vs baseline) was “significantly reduced”, the sICAM-1 levels ([21]; FH 80 mg/day, NFH 10 mg/day, 2 weeks to 9 months vs baseline) was “significantly reduced” and the insulin resistance index [22] was “decreased”. For the same compound, the non-HDL-cholesterol level [22] was “significantly decreased”, the “effect on human T, B and myeloma tumor cells” value [23] was “cytotoxic effect” and the “carotid IMT” value [24] was “significant IMT regression”.

For `CC/C=C\C/C=C\C/C=C\CCCCCCCC(=O)O` [ALA, alpha-linolenic acid], the “reduction of fasting sIL6R concentration” value [25] is given as “approximately 11%” and the “ischemia- and reperfusion-induced arrhythmias (incidence of VT and VF)” value [26] is given as “not”.

For `NCCC(O)(P(=O)(O)O)P(=O)(O)O` [pamidronate], the “Urinary deoxypyridinoline (means+/−SEM)” value ([27]; single infusion 90 mg, 4 weeks) is given as 4.4+/−0.4 nmol/mmol creatinine, the bone-specific alkaline phosphatase ([27]; single infusion 90 mg, after 4 weeks) is given as 14.1+/−1.2 u/l and the symptoms ([27]; vs placebo group) is given as “improvement”. For the same compound, the IC50 [28] was 25 µM, the HDL-C increased ([29]; 60 mg intravenous, three cycles every 3 months) was 10.3% and the LDL-C decreased ([29]; 60 mg intravenous, three cycles) was 5.5%. For the same compound, the TC/HDL-C decreased [29] was 12.5%, the “bone ALP and total ALP” value [29] was “significantly fell” and the “adverse effect of large intravenous dosages” value [30] was “marked hypocalcemia and/or hypophosphatemia”. For the same compound, the “pain in patients with osteoarthritis (with and without osteoporosis)” value [31] was “pain reduction”, the “production by osteoblasts of interleukin-6” value [32] was “inhibit” and the “mean serum levels of Interleukin-6” value [33] was “significantly decreased”.

For `O=c1c(-c2ccc(O)cc2)coc2cc(O)cc(O)c12` [genistein, 4′,5,7-trihydroxyisoflavone], the “expression of IL-6 mRNA induced by Ang II” value [16] is listed as “completely abolished”, the “nuclear NF-kappa B levels” value [34] is listed as “marked reduction” and the “serum levels of autoantibodies to collagen II” value ([35]; immunized mice) is listed as “significantly lower”. For the same compound, the “DTH reaction to oxazolone and granulocyte-mediated response” value ([35]; vs control mice) was “significantly suppressed”, the “growth of MCF-7 cells” value [36] was “significantly inhibit the growth” and the IC50 [37] was 223 µM. The “mean inhibition of thymidine uptake (+/−SD inhibition of basal)” value ([38]; 74 (unit uncertain)) was 61.96+/−18.96%, the “mean inhibition of thymidine uptake” value ([38]; 740 (unit uncertain)) was 92.65+/−8.59% and the “Epidermal growth factor stimulated thymidine uptake” value ([38]; clinically nonfunctioning adenomas) was “inhibited”. The “CuLDL-induced enhancement of STAT1 and STAT3 Tyr-phosphorylation and DNA-binding activity” value [39] was “markedly prevented”, the “wall thickness of the basilar artery” value ([40]; 1 mg/kg chow, 2 months) was “reduced the wall thickness significantly” and the “vasodilatation induced by ACh and Y-26763” value [40] was “significantly improved”. The “retinal albumin by Western blot” value ([41]; 300 mg) was “decreased”, the “retinal vascular leakage of radiolabeled sucrose” value ([41]; 150 or 300 mg/kg food, 6 months, vs diabetic control) was “significantly less” and the “IL-6- and OM-mediated effects (growth, resistance to etoposide and cisplatin)” value [42] was “inhibited”. For the same compound, the “inhibition of primary tumor growth” value ([43]; combined with radiation 5 Gy) was 87%, the “inhibition of primary tumor growth” value ([43]; genistein alone, 5 mg/d p.o.) was 30% and the “size of lymph nodes” value ([43]; genistein alone) was “increased the size of lymph nodes”. For the same compound, the “attenuating menopause-related bone loss” value [44] was “as effective as hormone replacement therapy”, the “50% inhibitory dose (IC50) for thymidine incorporation” value [45] was “higher for the SHR vascular smooth muscle cells” and the “stimulatory effect of PDGF on sAPPalpha” value [46] was “blocked”. For the same compound, the “LPS-induced increase in IL-1 beta, IL-6, and TNF-alpha mRNA levels” value ([47]; 37 microM) was “completely or more than 80% blocked”, the “LPS activation of NF-kappa B” value [47] was “reduced” and the “LPS-induced IL-6 protein synthesis and IL-6 bioactivity” value [47] was “reduced to baseline levels”. The “average cross sectional area of atherosclerotic lesion” value ([48]; hyperlipidemic plus genistein diet, 4 and half months) was 0.997 mm2, the MMP-3 expression ([48]; western blotting, vs HD group) was “reduction” and the “band of p27, Western blot” value [49] was 65.4+/−4.7 gray scale value. The “cells in G2 phase” value [49] was 26.2% and the “cells in G(1) phase” value [49] was 73.8%.

From patent publication US20060275294A1, “METHOD OF PREVENTION AND TREATMENT OF AGING, AGE-RELATED DISORDERS AND/OR AGE-RELATED MANIFESTATIONS INCLUDING ATHEROSCLEROSIS, PERIPHERAL VASCULAR DISEASE, CORONARY ARTERY DISEASE, OSTEOPOROSIS, ARTHRITIS, TYPE 2 DIABETES, DEMENTIA, ALZHEIMERS DISEASE AND CANCER” (priority 2002, published 2006)
